From PubChem BioAssay (NCI)
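All cell lines were grown in 96-well plates and treated with compound for 48 hours. GI50 is the concentration that inhibits growth by half. TGI is the concentration that stops growth completely.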

What was measured:
Assay in all cases: growth of human tumour cells (NCI), 48 h
MALME-3M melanoma = tested on: MALME-3M melanoma
EKVX NSCLC = tested on: EKVX NSCLC
HCT-116 colon = tested on: HCT-116 colon
CAKI-1 renal = tested on: CAKI-1 renal
OVCAR-3 ovarian = tested on: OVCAR-3 ovarian
NCI-H460 lung = tested on: NCI-H460 lung
SNB-19 CNS = tested on: SNB-19 CNS
IGROV1 ovarian = tested on: IGROV1 ovarian
HT29 colon = tested on: HT29 colon
RPMI-8226 leukemia = tested on: RPMI-8226 leukemia

## CCCCCC(/C=N/NC(N)=S)C(O)(C(F)(F)F)C(F)(F)F (stereo not given)
MALME-3M melanoma
  TGI: > 10 µM
EKVX NSCLC
  TGI: > 10 µM
HCT-116 colon
  TGI: > 10 µM
CAKI-1 renal
  TGI: > 10 µM
OVCAR-3 ovarian
  TGI: > 10 µM
NCI-H460 lung
  TGI: > 10 µM
SNB-19 CNS
  TGI: > 10 µM
IGROV1 ovarian
  TGI: > 10 µM
HT29 colon
  TGI: > 10 µM

## c1ccc(-c2cc(-c3cc(-c4ccccc4)n[nH]3)[nH]n2)cc1
MALME-3M melanoma
  TGI: > 100 µM
EKVX NSCLC
  TGI: > 100 µM
HCT-116 colon
  TGI: > 100 µM
CAKI-1 renal
  TGI: > 100 µM
OVCAR-3 ovarian
  TGI: > 100 µM
NCI-H460 lung
  TGI: > 100 µM
SNB-19 CNS
  TGI: > 100 µM
IGROV1 ovarian
  TGI: > 100 µM
HT29 colon
  TGI: > 100 µM

## COC(=O)[C@H]1ON2O[C@@H](O[C@H]3CCCC[C@@H]3C(C)(C)c3ccccc3)C[C@@H]3CC[C@H]1[C@@]32C
EKVX NSCLC
  TGI: > 100 µM
HCT-116 colon
  TGI: > 100 µM
CAKI-1 renal
  TGI: > 100 µM
OVCAR-3 ovarian
  TGI: > 100 µM
NCI-H460 lung
  TGI: > 100 µM
RPMI-8226 leukemia
  TGI: > 100 µM
IGROV1 ovarian
  TGI: > 100 µM
HT29 colon
  TGI: > 100 µM

## C[C@@H]1CCN(C(=O)CC#N)C[C@@H]1N(C)c1ncnc2[nH]ccc12
MALME-3M melanoma
  GI50: 82.5 µM
  TGI: > 100 µM
EKVX NSCLC
  GI50: 17.6 µM
  TGI: > 100 µM
CAKI-1 renal
  GI50: 42.1 µM
  TGI: > 100 µM
OVCAR-3 ovarian
  GI50: > 100 µM
  TGI: > 100 µM
NCI-H460 lung
  GI50: > 100 µM
  TGI: > 100 µM
IGROV1 ovarian
  GI50: 65.8 µM
  TGI: > 100 µM
HT29 colon
  GI50: > 100 µM
  TGI: > 100 µM

## CC1CSc2nc3[nH]c(=S)[nH]c3c(=O)n2C1 (stereo not given)
MALME-3M melanoma
  TGI: > 100 µM
EKVX NSCLC
  TGI: > 100 µM
HCT-116 colon
  TGI: > 100 µM
CAKI-1 renal
  TGI: > 100 µM
OVCAR-3 ovarian
  TGI: > 100 µM
NCI-H460 lung
  TGI: > 100 µM
RPMI-8226 leukemia
  TGI: > 100 µM
SNB-19 CNS
  TGI: > 100 µM
IGROV1 ovarian
  TGI: > 100 µM

## Cc1cc2nc3c(C(O)CO)nn(-c4ccccc4)c3nc2cc1C (stereo not given)
EKVX NSCLC
  TGI: 63.4 µM
HCT-116 colon
  TGI: 36.6 µM
CAKI-1 renal
  TGI: 33.2 µM
OVCAR-3 ovarian
  TGI: 35.1 µM
NCI-H460 lung
  TGI: 37.4 µM
RPMI-8226 leukemia
  TGI: > 100 µM
SNB-19 CNS
  TGI: 56.1 µM
IGROV1 ovarian
  TGI: 43.9 µM
HT29 colon
  TGI: 46.5 µM

## O/N=C1\CC2(N3CCOCC3)CCC1(Cc1ccccc1)CC2
MALME-3M melanoma
  TGI: > 100 µM
EKVX NSCLC
  TGI: > 100 µM
HCT-116 colon
  TGI: 90.6 µM
CAKI-1 renal
  TGI: > 100 µM
OVCAR-3 ovarian
  TGI: > 100 µM
NCI-H460 lung
  TGI: > 100 µM
SNB-19 CNS
  TGI: 63.5 µM
IGROV1 ovarian
  TGI: > 100 µM
HT29 colon
  TGI: > 100 µM

## O=C(c1ccc(Cl)cc1)N(C(=S)N1CCN(c2ccccc2)CC1)c1ccccc1
MALME-3M melanoma
  TGI: > 100 µM
HCT-116 colon
  TGI: > 100 µM
CAKI-1 renal
  TGI: > 100 µM
OVCAR-3 ovarian
  TGI: > 100 µM
NCI-H460 lung
  TGI: > 100 µM
RPMI-8226 leukemia
  TGI: > 100 µM
SNB-19 CNS
  TGI: > 100 µM
IGROV1 ovarian
  TGI: > 100 µM
HT29 colon
  TGI: > 100 µM

## C=CCC1(O)c2cccc(O)c2C(=O)c2cccc(O)c21 (stereo not given)
EKVX NSCLC
  TGI: 60.1 µM
HCT-116 colon
  TGI: 31.1 µM
CAKI-1 renal
  TGI: 68.2 µM
OVCAR-3 ovarian
  TGI: 59.7 µM
NCI-H460 lung
  TGI: 48 µM
RPMI-8226 leukemia
  TGI: 76.1 µM
IGROV1 ovarian
  TGI: > 100 µM
HT29 colon
  TGI: 64.1 µM

## CCCN(CCC)C(=O)Cc1c2n(c3ccccc13)Cc1ccccc1-2
MALME-3M melanoma
  TGI: > 100 µM
EKVX NSCLC
  TGI: > 100 µM
HCT-116 colon
  TGI: > 100 µM
CAKI-1 renal
  TGI: > 100 µM
OVCAR-3 ovarian
  TGI: > 100 µM
NCI-H460 lung
  TGI: > 100 µM
RPMI-8226 leukemia
  TGI: > 100 µM
SNB-19 CNS
  TGI: > 100 µM
HT29 colon
  TGI: > 100 µM

## CCOC(=O)c1c(NC(=O)c2ccccc2)sc2c1CCC2
EKVX NSCLC
  TGI: > 100 µM
HCT-116 colon
  TGI: > 100 µM
CAKI-1 renal
  TGI: > 100 µM
OVCAR-3 ovarian
  TGI: > 100 µM
NCI-H460 lung
  TGI: > 100 µM
RPMI-8226 leukemia
  TGI: > 100 µM
SNB-19 CNS
  TGI: > 100 µM
IGROV1 ovarian
  TGI: > 100 µM
HT29 colon
  TGI: > 100 µM

## COC(=O)c1cc(C)ccc1CC(Cc1ccccc1C)C(=O)OC (stereo not given)
MALME-3M melanoma
  TGI: > 100 µM
EKVX NSCLC
  TGI: 76.3 µM
HCT-116 colon
  TGI: > 100 µM
CAKI-1 renal
  TGI: > 100 µM
OVCAR-3 ovarian
  TGI: > 100 µM
NCI-H460 lung
  TGI: > 100 µM
SNB-19 CNS
  TGI: > 100 µM
IGROV1 ovarian
  TGI: > 100 µM
HT29 colon
  TGI: 94.2 µM

## COc1ccc(/C=N/n2c(C)n[nH]c2=O)cc1
MALME-3M melanoma
  TGI: > 100 µM
EKVX NSCLC
  TGI: > 100 µM
HCT-116 colon
  TGI: > 100 µM
CAKI-1 renal
  TGI: > 100 µM
OVCAR-3 ovarian
  TGI: > 100 µM
NCI-H460 lung
  TGI: > 100 µM
RPMI-8226 leukemia
  TGI: > 100 µM
SNB-19 CNS
  TGI: > 100 µM
HT29 colon
  TGI: > 100 µM

## CC(=O)NC1CCC(NC(=O)OC(C)(C)C)C(NC(=O)OC(C)(C)C)C1 (stereo not given)
MALME-3M melanoma
  TGI: > 100 µM
HCT-116 colon
  TGI: > 100 µM
CAKI-1 renal
  TGI: > 100 µM
OVCAR-3 ovarian
  TGI: > 100 µM
NCI-H460 lung
  TGI: > 100 µM
RPMI-8226 leukemia
  TGI: > 100 µM
SNB-19 CNS
  TGI: > 100 µM
IGROV1 ovarian
  TGI: > 100 µM
HT29 colon
  TGI: > 100 µM

## O=C(CN=C(CN(c1ccccc1)c1ccccc1)Oc1c([N+](=O)[O-])cc([N+](=O)[O-])cc1[N+](=O)[O-])N1CCNCC1
MALME-3M melanoma
  TGI: > 100 µM
EKVX NSCLC
  TGI: > 100 µM
HCT-116 colon
  TGI: > 100 µM
OVCAR-3 ovarian
  TGI: > 100 µM
NCI-H460 lung
  TGI: > 100 µM
RPMI-8226 leukemia
  TGI: > 100 µM
SNB-19 CNS
  TGI: > 100 µM
IGROV1 ovarian
  TGI: > 100 µM
HT29 colon
  TGI: > 100 µM

## O=C(/C=C/c1ccc(Cl)c(Cl)c1)CCN1CCN(CCC(=O)/C=C/c2ccc(Cl)c(Cl)c2)CC1
EKVX NSCLC
  TGI: > 100 µM
HCT-116 colon
  TGI: 23.8 µM
CAKI-1 renal
  TGI: 31.8 µM
OVCAR-3 ovarian
  TGI: 58.4 µM
NCI-H460 lung
  TGI: 38.5 µM
RPMI-8226 leukemia
  TGI: > 100 µM
IGROV1 ovarian
  TGI: 49 µM
HT29 colon
  TGI: 46.8 µM

## CCCC(=O)N[C@@H](Cc1cc(I)c(O)c(I)c1)C(=O)NCCCNCCCCNCCCNC(=O)[C@@H](N)CCCN=C(N)N
MALME-3M melanoma
  TGI: > 100 µM
EKVX NSCLC
  TGI: > 100 µM
HCT-116 colon
  TGI: > 100 µM
OVCAR-3 ovarian
  TGI: > 100 µM
NCI-H460 lung
  TGI: > 100 µM
RPMI-8226 leukemia
  TGI: > 100 µM
SNB-19 CNS
  TGI: > 100 µM
IGROV1 ovarian
  TGI: > 100 µM
HT29 colon
  TGI: > 100 µM
